Structures can show the parent of a compound that is named as a salt.
Legend:
Assay type in all cases: physicochemical
[1] = system: mRNA within LNP formulations; assay: Screen of molecular dyes on mRNA stability within LNP formulations (RP-HPLC); conditions: for Main Peak Purity after 4 days at 40° C. (%): 2 mM dye in mRNA-LNP, RP-HPLC, no value (—) = physically unstable, no reliable chromatographic result, interpreted as destabilizing; for Difference relative to No Dye: main peak purity, ±4% interpreted as significant; for Difference relative to No Dye / stabilization effect on mRNA in LNP: 2 mM dye, 4 days at 40° C.
Method: This example discusses the effects of various dye molecules on mRNA stability within LNP formulations. To evaluate the potential stabilization effects of dyes, LNP compositions were prepared containing 2 mM of one of 25 dyes. After incubation for 4 days at 40° C., main peak mRNA purity was measured by RP-HPLC. Variance within this study was estimated from three independent sample replicates with no dye (Sample IDs D0a, D0b and D0c as shown in Table 4) or with 2 mM methylene blue (Sample IDs D1a, D1b and D1c as shown in Table 4). […] The main peak purity measured in each mRNA-LNP formulation, as well as its difference relative to the no dye controls is shown in Table 4. Positive differences relative to no dye represent improvements in mRNA stability, and negative differences represent worsened mRNA stability.

[2] = system: lipid nanoparticles (LNP); assay: Permeation of phenothiazinium dyes into LNP and binding to encapsulated mRNA; conditions: optical spectroscopic studies, Cryo-EM, DLS, isothermal titration calorimetry
Text: This example describes phenothiazinium dyes which interact with mRNA and their impact on LNP formulations. […] These interpretations were made based on extensive optical spectroscopic studies, Cryo-EM, dynamic light scattering (DLS) and isothermal titration calorimetry studies.

[3] = system: mRNA-LNP; assay: Conventional antioxidants versus methylene blue on mRNA-LNP stability; conditions: 2 mM KDS, 5 mM KDS or 5 mM methionine, presence or absence of 2 mM methylene blue
Method: This example discusses the effects of conventional pharmaceutical antioxidants on mRNA stability. To evaluate the effects conventional pharmaceutical antioxidants might have on mRNA stability relative to methylene blue, a direct comparative study was performed between methionine, potassium metabisulfite (KDS) and methylene blue. mRNA purity was measured after incubation of mRNA-LNP compositions with no additive, or with 2 mM KDS, 5 mM KDS, or 5 mM methionine, in the presence or absence of 2 mM methylene blue.

Main Peak Purity after 4 days at 40° C. (%) [1] [%] | Difference relative to No Dye [1] [%] | Molecule | stabilization effect on mRNA in LNP [1] | permeation of lipid nanoparticles and binding to encapsulated mRNA [2] | stabilization effect on mRNA purity [3]
74.27 | −1 | Cc1c(C(=O)O)c(O)cc2c1C(=O)c1c(O)c(C3O[C@H](CO)[C@@H](O)[C@H](O)[C@H]3O)c(O)c(O)c1C2=O (stereo in doubt) [Carmine] | – | – | –
69.92 | −5 | CN(C)c1ccc2cc3ccc(N(C)C)cc3nc2c1 [Acridine Orange hydrochloride hydrate] | – | – | –
90.36 | 15 | CN(C)c1ccc2nc3ccc(N)cc3[s+]c2c1 [Azure A chloride] | stabilization effects similar to that of methylene blue | can permeate lipid nanoparticles (LNP) and bind to encapsulated mRNA without altering the gross structure of the LNP | –
68.61 | −6 | CCNc1cc2[s+]c3cc(NCC)c(C)cc3nc2cc1C [New methylene blue N] | – | – | –
70.75 | −4 | CCN(CC)c1ccc2nc3c4ccccc4c(=N)cc-3oc2c1 [Nile Blue A] | – | – | –
77.56 | 3 | CCN(CC)c1ccc2nc3c4ccccc4c(=O)cc-3oc2c1 [Nile Red] | – | – | –

Further lines, the molecule ahead of its results:

Molecule | Main Peak Purity after 4 days at 40° C. (%) [1] [%] | Difference relative to No Dye [1] [%] | stabilization effect on mRNA in LNP [1] | permeation of lipid nanoparticles and binding to encapsulated mRNA [2] | stabilization effect on mRNA purity [3]
CNc1ccc2nc3ccc(=[N+](C)C)cc-3sc2c1 [Azure B] | 90.16 | 15 | stabilization effects similar to that of methylene blue | can permeate lipid nanoparticles (LNP) and bind to encapsulated mRNA without altering the gross structure of the LNP | –
CN(C)c1ccc(C(=C2C=CC(=[N+](C)C)C=C2)c2ccc(N(C)C)cc2)cc1 [Crystal Violet] | 24.79 | −50 | – | – | –
O=C(O)c1ccccc1-c1c2cc([N+](=O)[O-])c(=O)c(Br)c-2oc2c(Br)c(O)c([N+](=O)[O-])cc12 [Eosin B] | 78.00 | 3 | – | – | –
Oc1cc2c(cc1O)[C@@H]1c3ccc(O)c(O)c3OC[C@]1(O)C2 [Hematoxylin] | 39.82 | −35 | – | – | –
O=S([O-])S(=O)(=O)[O-].[K+].[K+] [KDS, potassium metabisulfite] | – | – | – | – | Neither KDS nor methionine showed any stabilization effect
Cc1cc2nc3ccc(=[N+](C)C)cc-3[nH]c2cc1N [Neutral Red] | 59.34 | −16 | – | – | –
CN(C)c1ccc2cc3ccc(=[N+](C)C)cc-3oc2c1.[Cl-] [Pyronin Y] | 68.68 | −6 | – | – | –
Cc1cc2nc3cc(C)c(N)cc3[n+](-c3ccccc3)c2cc1N [Safranin O] | 89.14 | 14 | stabilization effects similar to that of methylene blue | – | –
O=[N+]([O-])[O-].[Ag+] [Silver nitrate (0.1 N), Silver nitrate] | 77.90 | 3 | – | – | –
Cc1cc2nc3ccc(N(C)C)cc3[s+]c2cc1N [Toluidine Blue O] | 74.66 | 0 | – | – | –
CSCC[C@H](N)C(=O)O [methionine] | – | – | – | – | Neither KDS nor methionine showed any stabilization effect
Bromophenol Blue sodium salt | 35.53 | −39 | – | – | –
Leucomethylene Blue (mesylate) | 89.46 | 14 | stabilization effects similar to that of methylene blue | – | –
